Measured values from paper PMC12692861, “Biotin-Linked Ursolic Acid Conjugates as Selective Anticancer Agents and Target-Identification Tools for Cancer Therapy” (Molecules, 2025).

Assays:
Type in all cases: cell-based, human
UROtsa = test: MTT assay, non-tumorigenic immortalized urothelial cell line; conditions: for IC50: Homo sapiens, MTT, 72 h, non-tumorigenic cells, read-out: IC50 ± SD, UROtsa
Method: The synthesized hybrid conjugates 5a–d were evaluated for their antiproliferative activity against the established human bladder cancer cell lines T24 and 5637. Test compounds were dissolved in ultrapure dimethyl sulfoxide (DMSO), diluted in cell culture media, added to cells cultured in 96-well cluster wells, and incubated for 72 h. The concentration of DMSO in culture media was maintained at < 0.05%. As previously reported, the fraction of viable cells in the culture wells was compared to that in cultures with 0.05% DMSO-only using a colorimetric assay, the Methyl Tetrazolium Bromide (MTT) reduction assay. We determined the selectivity index (SI) of the compounds 5a–d against tumor cells by comparing their cytotoxicity to that of a non-tumorigenic breast epithelial cell line, MCF-12A, as well as a non-tumorigenic, immortalized urothelial cell line, UROtsa (Table 1, and Figure 2).
(§1) The antiproliferative activities of various compounds examined in this report were measured using the MTT (3-[4,5-dimethylthiazol-2-yl]-2,5-diphenyl-tetrazolium bromide) reduction assay, as previously described. Briefly, cells were seeded at 2 × 10^3 cells per well in a 96-well plate and cultured overnight. The cells were then treated with different doses (5 µM, 10 µM, 15 µM, 20 µM, 25 µM, 30 µM, 35 µM, 40 µM in DMSO) for 72 h. Viability of the treated cultures was estimated by conversion of MTT to the insoluble formazan after 3h incubation at 37 °C and 5% CO2. The purple-colored formazan crystals were dissolved in DMSO, and absorbance was recorded at wavelengths 570/640 nm using the Bio-Rad Benchmark Plus Microplate Reader. The percent of viable cells was calculated ODtreated cells/ODcontrol cell wells × 100.

T24 cells = test: ROS estimation with H2DCFDA; conditions: T24, 24 h, all tested concentrations (5–40 µM)
Method: Since 5c was not toxic to non-tumorigenic cells, such as MCF12A and UROtsa, these cells were excluded from experiments aimed at identifying the broad mechanism of cytotoxicity. A common mechanism by which these antioxidants induce cytotoxicity in tumor cells is by generating Reactive Oxygen Species (ROS) selectively in fast-growing tumor cells. The levels of ROS generated by 5c exposed cells were evaluated with the oxidation of 2′,7′-dichlorodihydrofluorescein diacetate (H2DCFDA). It is a cell-permeant fluorescent probe used for detecting ROS production (Thermo Scientific Inc., Waltham, MA, USA). […] Figure 3 illustrates the quantification of intracellular ROS levels in four bladder cancer cell lines, 5637, T24, HT-1376, and MB49, following treatment with UA and its biotin-conjugated derivative, compound 5c.
The relative levels of intracellular ROS produced in untreated and drug-treated cells were analyzed by fluorimetry using the fluorescent probe H2DCFDA (Sigma-Aldrich, #D6883, St. Louis, MI, USA), as described previously. Briefly, cells cultured in a 96-well plate at 1 × 10^4 cells per well were treated with drugs of interest for 24 h rinsed with sterile PBS to remove excess drugs, and incubated with 10 μM DCFDA for 30 min at 37 °C and 5% CO2. Following three rinses with PBS, the fluorescence intensity was recorded at excitation: 485/20, emission: 528/20 using a BioTek Synergy HTX Multimode fluorescence plate reader (Agilent Technologies, Inc., Santa Clara, CA, USA), and the data were represented as percentage change compared to the respective untreated control.
Figure 3 Estimation of oxidative stress: Treatment with UA or 5c increased ROS levels in various bladder cancer cells. ROS levels were estimated at 24 h using DCFDA. The relative fluorescence unit (RFU) was normalized to that observed in untreated cells and expressed as a percent increase. Data are Means ± SD, (n = 4). Relative significance, expressed as p-value are calculated based on one-way ANOVA.

HT-1376 [1] = test: MTT antiproliferative assay; conditions: for IC50: Homo sapiens, HT-1376, MTT, 72 h, read-out: IC50 ± SD, HT-1376; for SI (selectivity index), HT-1376: IC50 UROtsa / IC50 HT-1376
Method: The IC50 values indicate that 5c is effective across multiple bladder cancer cell lines (Figure 2 and Table 2).
as §1

T24 = test: Cell cycle phase fractionation by flow cytometry (PI); conditions: T24, 24 h, mean ± SD n=3
Excerpt: (§2) Cells treated with some antiproliferative drugs are blocked from orderly progression from one stage of their mitotic cycle to the next due to inhibition of a specific stage of the cell cycle. Analysis by flow cytometry (FC) of DNA content in the nuclei of drug-treated cells is a well-established technique for evaluating the fractions of cells in each stage of the cell cycle based on their DNA content. In this study, we employed FC to examine whether treatment with UA or 5c affects the orderly cell cycle progression from G0/G1, S, and G2M before entering Mitosis (M). Figure 6 represents the effect of UA and 5c on cell cycle progression in four bladder cancer cell lines, 5637, HT-1376, T-24, and MB-49, after a […] treatment at a concentration of 12 µM. Following the treatment, nuclei suspensions from treated cells were prepared by direct cell lysis in a hypotonic solution, with simultaneous staining with PI (100 µg/mL). The resulting nuclei suspension and the samples were run on the flow cytometer and analyzed for DNA content.
(§3) Cells cultured in 35 mm diameter, 6-well cluster plates (Corning Inc., Corning, NY, USA) overnight at a density of 0.3 × 10^6 cells/well, and treated with various compounds at selected concentrations for 24 h. After completion of treatment, cells were washed twice with PBS, followed by the addition of Propidium Iodide (PI) containing […] solution [(0.1 mg/mL PI), 50mg Na-citrate, 15 µL of IGEPAL CA-630], 1 mL in each well, and incubated for 30–45 min at 37 °C and 5% CO2. After that data acquired using the NovoCyte Quanteon Flow Cytometer was analyzed using NovoExpress software (version 1.6.1).

HT-1376 [2] = test: as above; conditions: HT-1376, 24 h, mean ± SD n=3
Excerpt: as §2, §3

5637 = test: as above; conditions: 5637, 24 h, mean ± SD n=3
Excerpt: as §2, §3

Compound	IC50 (UROtsa)	ROS levels (T24 cells)	IC50 (HT-1376 [1])	SI (selectivity index), HT-1376 (HT-1376 [1])	Cell-Cycle Phase-Fractions G1 (T24)	Cell-Cycle Phase-Fractions G2/M (T24)	Cell-Cycle Phase-Fractions S (T24)	Cell-Cycle Phase-Fractions G1 (HT-1376 [2])	Cell-Cycle Phase-Fractions G2/M (HT-1376 [2])	Cell-Cycle Phase-Fractions S (HT-1376 [2])	Cell-Cycle Phase-Fractions G1 5637	Cell-Cycle Phase-Fractions G2/M 5637	Cell-Cycle Phase-Fractions S 5637	toxicity to non-tumorigenic cells (UROtsa; UROtsa)
C[C@H]1[C@H](C)CC[C@]2(C(=O)O)CC[C@]3(C)C(=CC[C@@H]4[C@@]5(C)CC[C@H](O)C(C)(C)[C@@H]5CC[C@]43C)[C@H]12 [UA, Ursolic acid]	67 ± 7.15 µM	comparable increases in ROS levels	21.9 ± 1.14 µM	3.06	57.76 ± 2.60 % of total	19.95 ± 1.82 % of total	22.29 ± 0.77 % of total	52.40 ± 0.56 % of total	17.17 ± 1.04 % of total	30.43 ± 0.48 % of total	43.52 ± 0.88 % of total	18.59 ± 2.05 % of total	37.89 ± 1.16 % of total	–
CC1CCC2(C(=O)OCCCCOC(=O)CCCCC3SCC4NC(=O)NC43)CCC3(C)C(=CCC4C5(C)CCC(O)C(C)(C)C5CCC43C)C2C1C [Compound 5c, 4-((5-((3aS,4S,6aR)-2-Oxohexahydro-1H-thieno [3,4-d]imidazol-4-yl)pentanoyl)oxy) butyl 3-hydroxy-urs-12-en-28-oate]	62.9 ± 3.84 µM	comparable increases in ROS levels	12.7 ± 0.4 µM	4.96	55.10 ± 0.37 % of total	15.20 ± 0.02 % of total	29.70 ± 0.39 % of total	52.11 ± 0.06 % of total	16.15 ± 0.71 % of total	31.73 ± 0.65 % of total	47.78 ± 0.60 % of total	16.79 ± 0.73 % of total	35.42 ± 1.33 % of total	not toxic
